Measurements from ChEMBL document CHEMBL4390652, “Design, biological evaluation and X-ray crystallography of nanomolar multifunctional ligands targeting simultaneously acetylcholinesterase and glycogen synthase kinase-3” (Eur J Med Chem, 2019).

Key:
HCT-116 = assay: Cytotoxicity against human HCT116 cells assessed as growth inhibition incubated for 48 hrs by Hoechst 33342 staining based assay; format: cell-based; details: HCT-116, 48 h
NCI-H727 = assay: Cytotoxicity against human NCI-H727 cells assessed as growth inhibition incubated for 48 hrs by Hoechst 33342 staining based assay; format: cell-based; details: NCI-H727, 48 h
[1] = target: Atypical kinase COQ8A, mitochondrial (Homo sapiens) (UniProt Q8NI60); assay: Binding affinity to wild-type human full length ADCK3 (M280 to Q647 residues) expressed in bacterial expression system assessed as residual binding level at 10 uM by Kinomescan method relative to control
[2] = target: Cytoplasmic tyrosine-protein kinase BMX (Homo sapiens) (UniProt P51813); assay: Binding affinity to wild-type human full length BMX (M1 to H675 residues) expressed in bacterial expression system assessed as residual binding level at 10 uM by Kinomescan method relative to control
[3] = target: Calcium/calmodulin-dependent protein kinase type II subunit gamma (Homo sapiens) (UniProt Q13555); assay: Binding affinity to wild-type human partial length CAMK2G (R9 to A303 residues) expressed in bacterial expression system assessed as residual binding level at 10 uM by Kinomescan method relative to control
[4] = target: Cyclin-dependent kinase 11B (Homo sapiens) (UniProt P21127); assay: Binding affinity to wild-type human partial length CDC2L1 (P353 to G692 residues) expressed in bacterial expression system assessed as residual binding level at 10 uM by Kinomescan method relative to control
[5] = target: Casein kinase I isoform alpha (Homo sapiens) (UniProt P48729); assay: Binding affinity to wild-type human partial length CSNK1A1 (M1 to L450 residues) expressed in mammalian expression system assessed as residual binding level at 10 uM by Kinomescan method relative to control
[6] = target: Ephrin type-A receptor 8 (Homo sapiens) (UniProt P29322); assay: Binding affinity to wild-type human partial length EPHA8 (Q608 to C920 residues) expressed in bacterial expression system assessed as residual binding level at 10 uM by Kinomescan method relative to control
[7] = target: Receptor tyrosine-protein kinase erbB-3 (Homo sapiens) (UniProt P21860); assay: Binding affinity to wild-type human partial length ERBB3 (G684 to A987 residues) expressed in mammalian expression system assessed as residual binding level at 10 uM by Kinomescan method relative to control
[8] = target: Focal adhesion kinase 1 (Homo sapiens) (UniProt Q05397); assay: Binding affinity to wild-type human partial length FAK (D402 to R696 residues) expressed in bacterial expression system assessed as residual binding level at 10 uM by Kinomescan method relative to control
[9] = target: Fibroblast growth factor receptor 4 (Homo sapiens) (UniProt P22455); assay: Binding affinity to wild-type human partial length FGFR4 (G402 to E713 residues) expressed in bacterial expression system assessed as residual binding level at 10 uM by Kinomescan method relative to control
[10] = target: Homeodomain-interacting protein kinase 3 (Homo sapiens) (UniProt Q9H422); assay: Binding affinity to wild-type human partial length HIPK3 (M153 to N562 residues) expressed in mammalian expression system assessed as residual binding level at 10 uM by Kinomescan method relative to control
[11] = target: Hormonally up-regulated neu tumor-associated kinase (Homo sapiens) (UniProt P57058); assay: Binding affinity to wild-type human partial length HUNK (A31 to K354 residues) expressed in bacterial expression system assessed as residual binding level at 10 uM by Kinomescan method relative to control
[12] = target: Serine/threonine-protein kinase MARK2 (Homo sapiens) (UniProt Q7KZI7); assay: Binding affinity to wild-type human partial length MARK2 (M1 to R450 residues) expressed in bacterial expression system assessed as residual binding level at 10 uM by Kinomescan method relative to control
[13] = test system: Hepatocyte growth factor receptor (Homo sapiens), P08581 [M1250T]; assay: Binding affinity to human partial length MET M1250T mutant (D1010 to S1367 residues) expressed in bacterial expression system assessed as residual binding level at 10 uM by Kinomescan method relative to control
[14] = target: Serine/threonine-protein kinase Nek10 (Homo sapiens) (UniProt Q6ZWH5); assay: Binding affinity to wild-type human partial length NEK10 (L488 to R809 residues) expressed in mammalian expression system assessed as residual binding level at 10 uM by Kinomescan method relative to control
[15] = target: Serine/threonine-protein kinase NLK (Homo sapiens) (UniProt Q9UBE8); assay: Binding affinity to wild-type human full length NLK (M13 to E527 residues) expressed in bacterial expression system assessed as residual binding level at 10 uM by Kinomescan method relative to control
[16] = test system: Phosphatidylinositol 4,5-bisphosphate 3-kinase catalytic subunit alpha isoform (Homo sapiens), P42336 [C420R]; assay: Binding affinity to human partial length PIK3CA C420R mutant (R108 to N1068 residues) expressed in mammalian expression system assessed as residual binding level at 10 uM by Kinomescan method relative to control
[17] = target: Protein kinase C delta type (Homo sapiens) (UniProt Q05655); assay: Binding affinity to wild-type human partial length PRKCD (Q328 to D676 residues) expressed in bacterial expression system assessed as residual binding level at 10 uM by Kinomescan method relative to control
[18] = target: Ribosomal protein S6 kinase alpha-4 (Homo sapiens) (UniProt O75676); assay: Binding affinity to wild-type human partial length N-terminal RPS6KA4 kinase domain 1 expressed in bacterial expression system assessed as residual binding level at 10 uM by Kinomescan method relative to control
[19] = target: Tyrosine-protein kinase Srms (Homo sapiens) (UniProt Q9H3Y6); assay: Binding affinity to wild-type human partial length SRMS (L208 to P488 residues) expressed in mammalian expression system assessed as residual binding level at 10 uM by Kinomescan method relative to control
[20] = target: Tyrosine-protein kinase SYK (Homo sapiens) (UniProt P43405); assay: Binding affinity to wild-type human partial length SYK (D354 to N635 residues) expressed in bacterial expression system assessed as residual binding level at 10 uM by Kinomescan method relative to control
[21] = target: NT-3 growth factor receptor (Homo sapiens) (UniProt Q16288); assay: Binding affinity to wild-type human partial length TRKC (Q531 to G825 residues) expressed in mammalian expression system assessed as residual binding level at 10 uM by Kinomescan method relative to control
[22] = target: Testis-specific serine/threonine-protein kinase 3 (Homo sapiens) (UniProt Q96PN8); assay: Binding affinity to wild-type human full length TSSK3 (M1 to T268 residues) expressed in mammalian expression system assessed as residual binding level at 10 uM by Kinomescan method relative to control
[23] = target: Serine/threonine-protein kinase 32B (Homo sapiens) (UniProt Q9NY57); assay: Binding affinity to wild-type human full length YANK2 (M1 to S414 residues) expressed in bacterial expression system assessed as residual binding level at 10 uM by Kinomescan method relative to control

Sequence of Tyrosine-protein kinase Srms (Homo sapiens) (Q9H3Y6 whole entry, the tested form may be a part): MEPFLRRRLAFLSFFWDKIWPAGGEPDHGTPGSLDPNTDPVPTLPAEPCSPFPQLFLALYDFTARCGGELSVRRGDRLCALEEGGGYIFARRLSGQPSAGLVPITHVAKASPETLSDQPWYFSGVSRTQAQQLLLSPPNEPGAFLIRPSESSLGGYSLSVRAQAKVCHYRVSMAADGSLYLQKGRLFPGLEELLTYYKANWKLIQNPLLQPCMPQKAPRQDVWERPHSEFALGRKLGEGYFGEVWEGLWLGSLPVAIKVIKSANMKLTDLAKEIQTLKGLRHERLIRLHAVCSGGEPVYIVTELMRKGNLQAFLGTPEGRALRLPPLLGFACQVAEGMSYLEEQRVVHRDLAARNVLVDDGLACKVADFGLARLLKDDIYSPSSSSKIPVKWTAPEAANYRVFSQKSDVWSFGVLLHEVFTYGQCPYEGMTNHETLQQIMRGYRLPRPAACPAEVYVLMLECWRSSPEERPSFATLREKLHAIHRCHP
Sequence of Homeodomain-interacting protein kinase 3 (Homo sapiens) (Q9H422 whole entry, looked up, the tested form may be a part): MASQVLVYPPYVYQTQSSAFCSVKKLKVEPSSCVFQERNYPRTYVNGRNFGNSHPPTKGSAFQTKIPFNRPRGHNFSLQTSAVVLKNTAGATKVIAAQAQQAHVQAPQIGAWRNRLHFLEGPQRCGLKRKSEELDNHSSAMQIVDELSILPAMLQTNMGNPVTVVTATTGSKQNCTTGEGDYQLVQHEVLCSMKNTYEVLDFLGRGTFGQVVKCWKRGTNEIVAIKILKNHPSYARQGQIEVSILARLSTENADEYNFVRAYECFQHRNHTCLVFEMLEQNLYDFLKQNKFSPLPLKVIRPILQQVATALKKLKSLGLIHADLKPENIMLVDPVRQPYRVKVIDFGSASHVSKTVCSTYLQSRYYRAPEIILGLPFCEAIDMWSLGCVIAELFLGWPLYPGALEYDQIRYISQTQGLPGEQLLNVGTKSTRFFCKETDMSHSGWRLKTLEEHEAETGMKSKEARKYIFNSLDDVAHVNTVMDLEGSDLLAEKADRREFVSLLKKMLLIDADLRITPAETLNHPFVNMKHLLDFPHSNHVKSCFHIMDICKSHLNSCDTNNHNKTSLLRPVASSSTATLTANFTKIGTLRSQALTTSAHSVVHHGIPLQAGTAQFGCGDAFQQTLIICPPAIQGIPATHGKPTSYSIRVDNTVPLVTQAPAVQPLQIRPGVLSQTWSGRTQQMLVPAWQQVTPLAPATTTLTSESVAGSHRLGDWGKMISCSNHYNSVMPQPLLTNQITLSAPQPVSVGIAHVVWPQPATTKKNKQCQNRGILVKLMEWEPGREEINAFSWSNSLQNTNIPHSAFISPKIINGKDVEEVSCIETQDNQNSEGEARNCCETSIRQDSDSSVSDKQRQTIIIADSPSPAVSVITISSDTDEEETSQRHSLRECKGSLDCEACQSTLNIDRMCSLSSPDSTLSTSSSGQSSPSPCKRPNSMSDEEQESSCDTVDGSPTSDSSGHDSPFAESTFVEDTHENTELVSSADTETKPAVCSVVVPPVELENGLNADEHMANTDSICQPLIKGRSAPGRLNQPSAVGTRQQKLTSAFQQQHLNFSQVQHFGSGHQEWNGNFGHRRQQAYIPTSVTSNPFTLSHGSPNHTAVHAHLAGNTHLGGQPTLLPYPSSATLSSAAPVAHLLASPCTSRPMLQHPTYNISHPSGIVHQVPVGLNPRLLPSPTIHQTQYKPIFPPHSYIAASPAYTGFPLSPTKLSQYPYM
Sequence of Fibroblast growth factor receptor 4 (Homo sapiens) (P22455 22-802 limits assumed): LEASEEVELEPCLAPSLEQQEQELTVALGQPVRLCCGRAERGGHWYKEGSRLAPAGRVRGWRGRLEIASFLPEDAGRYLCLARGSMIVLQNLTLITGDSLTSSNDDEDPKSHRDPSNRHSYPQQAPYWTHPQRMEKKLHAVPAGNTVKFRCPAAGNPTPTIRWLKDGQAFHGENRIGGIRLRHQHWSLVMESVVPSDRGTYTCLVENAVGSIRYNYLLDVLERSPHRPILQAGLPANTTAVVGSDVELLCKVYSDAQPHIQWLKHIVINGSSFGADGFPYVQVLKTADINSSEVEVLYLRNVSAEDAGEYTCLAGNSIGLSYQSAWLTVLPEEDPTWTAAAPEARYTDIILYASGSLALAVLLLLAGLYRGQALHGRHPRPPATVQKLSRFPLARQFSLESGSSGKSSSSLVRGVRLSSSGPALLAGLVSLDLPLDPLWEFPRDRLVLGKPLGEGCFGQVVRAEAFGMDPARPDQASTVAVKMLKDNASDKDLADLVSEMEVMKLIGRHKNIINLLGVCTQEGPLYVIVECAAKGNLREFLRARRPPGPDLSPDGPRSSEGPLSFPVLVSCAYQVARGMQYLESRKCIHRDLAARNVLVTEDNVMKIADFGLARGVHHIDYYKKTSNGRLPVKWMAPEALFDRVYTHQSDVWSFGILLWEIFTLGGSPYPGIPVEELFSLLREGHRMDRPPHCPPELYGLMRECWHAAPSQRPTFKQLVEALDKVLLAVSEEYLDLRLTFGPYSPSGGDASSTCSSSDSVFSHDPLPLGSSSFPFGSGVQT
Sequence of Atypical kinase COQ8A, mitochondrial (Homo sapiens) (Q8NI60 163-647 limits assumed): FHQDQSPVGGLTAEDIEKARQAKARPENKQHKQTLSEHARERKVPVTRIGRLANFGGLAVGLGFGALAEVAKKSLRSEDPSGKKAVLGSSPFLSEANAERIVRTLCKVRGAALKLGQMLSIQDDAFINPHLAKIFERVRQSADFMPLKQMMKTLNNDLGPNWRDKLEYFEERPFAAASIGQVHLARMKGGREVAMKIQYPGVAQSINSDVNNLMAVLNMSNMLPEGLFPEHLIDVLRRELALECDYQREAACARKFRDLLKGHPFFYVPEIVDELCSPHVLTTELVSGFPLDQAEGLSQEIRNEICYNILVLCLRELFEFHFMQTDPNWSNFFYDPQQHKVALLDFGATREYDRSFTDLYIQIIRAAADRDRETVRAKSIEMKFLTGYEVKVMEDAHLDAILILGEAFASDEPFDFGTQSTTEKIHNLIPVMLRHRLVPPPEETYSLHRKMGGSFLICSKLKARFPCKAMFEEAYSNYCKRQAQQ
Sequence of Phosphatidylinositol 4,5-bisphosphate 3-kinase catalytic subunit alpha isoform (Homo sapiens), P42336 [C420R] (P42336 whole entry C420R, the tested form may be a part, canonical isoform): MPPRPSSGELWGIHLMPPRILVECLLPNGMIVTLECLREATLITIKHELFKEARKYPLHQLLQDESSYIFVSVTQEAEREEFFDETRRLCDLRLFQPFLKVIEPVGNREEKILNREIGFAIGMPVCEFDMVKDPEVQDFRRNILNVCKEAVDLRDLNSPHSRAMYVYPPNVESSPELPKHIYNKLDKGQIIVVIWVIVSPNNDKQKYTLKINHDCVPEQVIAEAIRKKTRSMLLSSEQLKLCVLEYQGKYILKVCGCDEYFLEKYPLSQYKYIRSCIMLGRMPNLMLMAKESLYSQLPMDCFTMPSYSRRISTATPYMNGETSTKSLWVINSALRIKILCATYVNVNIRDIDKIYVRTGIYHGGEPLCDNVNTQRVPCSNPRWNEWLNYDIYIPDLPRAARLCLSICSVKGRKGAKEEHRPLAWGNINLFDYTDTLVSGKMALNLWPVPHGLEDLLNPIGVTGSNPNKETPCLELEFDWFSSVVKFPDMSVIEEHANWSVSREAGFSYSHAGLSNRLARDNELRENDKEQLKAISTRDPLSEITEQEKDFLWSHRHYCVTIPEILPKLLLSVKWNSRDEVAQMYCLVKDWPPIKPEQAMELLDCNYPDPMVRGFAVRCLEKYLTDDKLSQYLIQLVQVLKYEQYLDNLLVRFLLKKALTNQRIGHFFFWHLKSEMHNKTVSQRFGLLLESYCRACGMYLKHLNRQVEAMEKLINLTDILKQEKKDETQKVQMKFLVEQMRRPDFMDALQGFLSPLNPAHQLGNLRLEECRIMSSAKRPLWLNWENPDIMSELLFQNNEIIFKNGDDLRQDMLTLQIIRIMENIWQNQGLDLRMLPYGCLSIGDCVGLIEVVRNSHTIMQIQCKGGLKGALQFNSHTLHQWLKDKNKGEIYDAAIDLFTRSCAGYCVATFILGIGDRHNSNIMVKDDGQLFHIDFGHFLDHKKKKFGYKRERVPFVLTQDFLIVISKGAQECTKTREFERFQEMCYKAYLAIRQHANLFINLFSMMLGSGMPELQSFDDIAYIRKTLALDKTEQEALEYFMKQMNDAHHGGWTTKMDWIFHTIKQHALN
Sequence of Casein kinase I isoform alpha (Homo sapiens) (P48729 2-337 limits assumed): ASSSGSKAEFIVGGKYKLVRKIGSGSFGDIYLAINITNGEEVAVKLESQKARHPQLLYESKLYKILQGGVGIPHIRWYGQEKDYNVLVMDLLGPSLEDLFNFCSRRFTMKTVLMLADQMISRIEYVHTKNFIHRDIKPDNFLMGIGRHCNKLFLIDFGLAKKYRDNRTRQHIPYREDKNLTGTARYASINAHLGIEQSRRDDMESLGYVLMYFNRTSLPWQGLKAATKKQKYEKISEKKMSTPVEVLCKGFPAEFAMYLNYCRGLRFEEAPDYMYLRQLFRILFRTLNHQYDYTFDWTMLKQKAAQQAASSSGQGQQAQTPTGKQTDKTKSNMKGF
Sequence of Calcium/calmodulin-dependent protein kinase type II subunit gamma (Homo sapiens) (Q13555 whole entry, the tested form may be a part): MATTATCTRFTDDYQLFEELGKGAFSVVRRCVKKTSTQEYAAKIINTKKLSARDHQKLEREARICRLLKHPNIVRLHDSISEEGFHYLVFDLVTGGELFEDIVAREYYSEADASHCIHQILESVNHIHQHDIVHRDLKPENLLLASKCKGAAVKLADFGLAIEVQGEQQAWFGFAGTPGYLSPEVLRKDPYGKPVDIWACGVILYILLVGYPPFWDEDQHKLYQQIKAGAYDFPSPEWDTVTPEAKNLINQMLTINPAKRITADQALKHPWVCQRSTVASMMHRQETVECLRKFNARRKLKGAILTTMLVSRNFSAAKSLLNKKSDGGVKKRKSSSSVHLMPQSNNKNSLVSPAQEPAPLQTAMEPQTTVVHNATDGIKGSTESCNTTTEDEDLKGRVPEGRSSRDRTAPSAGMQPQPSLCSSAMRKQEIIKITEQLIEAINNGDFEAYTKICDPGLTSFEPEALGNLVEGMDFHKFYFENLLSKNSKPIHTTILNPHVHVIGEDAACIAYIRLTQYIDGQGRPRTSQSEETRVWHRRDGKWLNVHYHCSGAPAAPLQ

## O=C(Nc1cc(-c2cn(CCNc3c4c(nc5ccccc35)CCCC4)nn2)ccn1)Nc1cccc2c1C1CCCCN1C2=O (racemic)
HCT-116
  IC50: 3000 nM
NCI-H727
  IC50: 2000 nM
[1]
  Activity: 40%
[2]
  Activity: 100%
[3]
  Activity: 64%
[4]
  Activity: 99%
[5]
  Activity: 5.3%
[6]
  Activity: 80%
[7]
  Activity: 73%
[8]
  Activity: 87%
[9]
  Activity: 100%
[10]
  Activity: 99%
[11]
  Activity: 100%
[12]
  Activity: 46%
[13]
  Activity: 91%
[14]
  Activity: 2.5%
[15]
  Activity: 70%
[16]
  Activity: 72%
[17]
  Activity: 7.3%
[18]
  Activity: 22%
[19]
  Activity: 82%
[20]
  Activity: 91%
[21]
  Activity: 14%
[22]
  Activity: 100%
[23]
  Activity: 100%
